From the supplement of paper PMC6045584
± gives the standard deviation of the averaged measurements.

Columns and labels:
[1] = compound: CCN(CC)CCCCNc1ncc2cc(-c3cc(OC)cc(OC)c3)c(NC(=O)NC(C)(C)C)nc2n1; assay: surviving fraction relative to DMSO-only wells; higher = less growth inhibition; conditions: exposure time: 5 days
How it was run: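 Viability values are CellTiter-Glo luminescence readings, given as surviving fraction against the median of DMSO-only wells. The readings were taken after 10 minutes at room temperature, following five days of continuous exposure to inhibitors at 0.5, 1, 5, 10, 50, 100, 500 and 1000 nM that began 24 hours after log-phase tumour cell lines were seeded at 250–500 cells per well in 384-well plates. Every line was screened three times and kept only if replicate Pearson r >0.7 and median Z' >0.3.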

[2] = compound: C=CCNC1=C2C[C@@H](C)C[C@H](OC)[C@H](O)[C@@H](C)/C=C(\C)[C@H](OC(N)=O)[C@@H](OC)/C=C\C=C(/C)C(=O)NC(=CC1=O)C2=O [17-AAG]; assay: area under dose-response curve of surviving fraction (unscaled, Aref=0) (surviving fraction x log10(nM)); higher = more resistant; conditions: exposure time: 5 days; dose range 0.5-1000 nM
How it was run: (§1)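 Three screens per tumour cell line were run in 384-well plates at eight inhibitor concentrations from 0.5 to 1000 nM over five days. Surviving fractions, from CellTiter-Glo luminescence normalised to DMSO-only wells, were fitted with 3-parameter logistic curves in the drc R package. The reported area under the curve is the unscaled activity area. It spans log10 dose, and Aref is 0.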

[3] = compound: CC[C@@H](C(=O)[C@@H](C)[C@@H](O)[C@H](C)[C@@H]1O[C@@H]([C@@H](CC)C(=O)O)CC[C@@H]1C)[C@H]1O[C@]2(C=C[C@@H](O)[C@]3(CC[C@@](C)([C@H]4CC[C@](O)(CC)[C@H](C)O4)O3)O2)[C@H](C)C[C@@H]1C [SALINOMYCIN]; assay: as above; conditions: exposure time: 5 days; dose range 0.5-1000 nM
How it was run: as §1

[4] = compound: CN(C)CC[C@H](CSc1ccccc1)Nc1ccc(S(=O)(=O)NC(=O)c2ccc(N3CCN(Cc4ccccc4-c4ccc(Cl)cc4)CC3)cc2)cc1[N+](=O)[O-] [ABT-737]; assay: as above; conditions: exposure time: 5 days; dose range 0.5-1000 nM
How it was run: as §1

[5] = compound: CN1CC[C@H](c2c(O)cc(O)c3c(=O)cc(-c4ccccc4Cl)oc23)[C@H](O)C1 [FLAVOPIRIDOL]; assay: as above; conditions: exposure time: 5 days; dose range 0.5-1000 nM
How it was run: as §1

[6] = compound: COc1cc2c(cc1O)CC[C@@H]1[C@@H]2CC[C@]2(C)[C@@H](O)CC[C@@H]12 [2-METHOXYESTRADIOL]; assay: as above; conditions: exposure time: 5 days; dose range 0.5-1000 nM
How it was run: as §1

[7] = compound: COc1ccc(C2=N[C@@H](c3ccc(Cl)cc3)[C@@H](c3ccc(Cl)cc3)N2C(=O)N2CCNC(=O)C2)c(OC(C)C)c1 [NUTLIN3]; assay: as above; conditions: exposure time: 5 days; dose range 0.5-1000 nM
How it was run: as §1

[8] = compound: COc1cccc2c1C(=O)c1c(O)c3c(c(O)c1C2=O)C[C@@](O)(C(=O)CO)C[C@@H]3O[C@H]1C[C@H](N)[C@H](O)[C@H](C)O1 [DOXORUBICIN]; assay: as above; conditions: exposure time: 5 days; dose range 0.5-1000 nM
How it was run: as §1

[9] = compound: CS(=O)(=O)CCNCc1ccc(-c2ccc3ncnc(Nc4ccc(OCc5cccc(F)c5)c(Cl)c4)c3c2)o1 [LAPATINIB]; assay: as above; conditions: exposure time: 5 days; dose range 0.5-1000 nM
How it was run: as §1

[10] = compound: CS(=O)(=O)c1ccc(C(=O)Nc2ccc(Cl)c(-c3ccccn3)c2)c(Cl)c1 [VISMODEGIB]; assay: as above; conditions: exposure time: 5 days; dose range 0.5-1000 nM
How it was run: as §1

[11] = compound: Nc1ncn([C@H]2C[C@H](O)[C@@H](CO)O2)c(=O)n1 [DECITABINE]; assay: as above; conditions: exposure time: 5 days; dose range 0.5-1000 nM
How it was run: as §1

[12] = compound: O=c1[nH]cc(F)c(=O)[nH]1 [FLUOROURACIL]; assay: as above; conditions: exposure time: 5 days; dose range 0.5-1000 nM
How it was run: as §1

[13] = compound: Oc1ccc(/C=C/c2cc(O)cc(O)c2)cc1 [RESVERATROL]; assay: as above; conditions: exposure time: 5 days; dose range 0.5-1000 nM
How it was run: as §1

Test System | surviving fraction ([1]; 0.5 nM) | surviving fraction ([1]; 1 nM) | surviving fraction ([1]; 5 nM) | surviving fraction ([1]; 10 nM) | surviving fraction ([1]; 50 nM) | surviving fraction ([1]; 100 nM) | surviving fraction ([1]; 500 nM) | surviving fraction ([1]; 1000 nM) | area under dose-response curve [2] | area under dose-response curve [3] | area under dose-response curve [4] | area under dose-response curve [5] | area under dose-response curve [6] | area under dose-response curve [7] | area under dose-response curve [8] | area under dose-response curve [9] | area under dose-response curve [10] | area under dose-response curve [11] | area under dose-response curve [12] | area under dose-response curve [13]
G292 BONE | 0.836 ± 0.27 | 0.97 ± 0.048 | 0.958 ± 0.027 | 0.918 ± 0.042 | 0.495 ± 0.17 | 0.387 ± 0.008 | 0.181 ± 0.012 | 0.18 ± 0.0066 | 1.84 | 2.65 | 3.45 | 2.14 | 2.87 | 3.34 | 1.77 | 3.3 | 3.2 | 2.61 | 3.29 | 3.42
HCC38 BREAST | 1.15 ± 0.23 | 0.97 ± 0.19 | 1.15 ± 0.17 | 1.12 ± 0.19 | 0.979 ± 0.37 | 1.04 ± 0.18 | 0.824 ± 0.17 | 0.846 ± 0.2 | 0.903 | 2.83 | – | 2.36 | – | 4.18 | 1.77 | 3 | 2.67 | 2.64 | 2.87 | –
HCC70 BREAST | 0.977 ± 0.084 | 1 ± 0.017 | 0.957 ± 0.12 | 1.07 ± 0.041 | 1.05 ± 0.06 | 1.08 ± 0.037 | 0.962 ± 0.055 | 1 ± 0.09 | 1.53 | 2.56 | 3.49 | 2.16 | 3.06 | 3.49 | 2.04 | 3.58 | 3.57 | – | – | 3.59
HMLE3 BREAST | 0.929 ± 0.061 | 0.934 ± 0.049 | 0.895 ± 0.05 | 0.995 ± 0.056 | 0.764 ± 0.049 | 0.683 ± 0.052 | 0.428 ± 0.0075 | 0.41 ± 0.023 | 1.61 | 2.7 | 3.75 | 2.14 | 3.23 | – | 1.36 | – | 3.06 | 2.98 | – | 3.42
HMT3552 BREAST | 1.15 | 0.971 | 0.993 | 1.05 | 0.89 | 0.98 | 0.827 | 0.803 | – | – | 3.5 | 1.86 | 2.95 | – | – | 3.24 | – | 3.71 | 3.23 | 3.64
HS57T BREAST | 0.932 ± 0.022 | 0.899 ± 0.03 | 0.977 ± 0.067 | 0.952 ± 0.015 | 0.67 ± 0.03 | 0.693 ± 0.078 | 0.577 ± 0.021 | 0.579 ± 0.089 | – | – | – | – | – | – | – | – | – | – | – | –
HS578T BREAST | 0.97 ± 0.1 | 1.03 ± 0.19 | 0.973 ± 0.098 | 1.02 ± 0.02 | 0.836 ± 0.021 | 0.801 ± 0.056 | 0.886 ± 0.096 | 0.738 ± 0.095 | 1.45 | 2.87 | 3.8 | 2.13 | 2.71 | – | 1.93 | 3.34 | 3.11 | 2.99 | 2.85 | 3.82
